Data on six compounds can be found in patent US5925332A, “Radioimaging and radiochemotherapy phenolic thioether amines and acyl derivatives thereof for use in diagnosing and treating pigmentation disorders” (The Governors of the University of Alberta, priority 1992, dated 1999).

≈ marks a conversion by molar mass, not a printed value. Entries after “also recorded” stand apart in the source; their conditions may differ.

The subject of data set [1] is B16F10 melanoma. Nature of the data set: In vivo covalent binding of (14C)-NACAP to tissues of melanoma-bearing mice. The note with it: female C57BL/6J mice, single i.p. injection, 48 hr, mean + S.D. (n = 3). On the procedure:
In vivo covalent binding of (^14 C)-N-acetyl-4-S-CAP was investigated in mice. Female C57BL/6J mice received a single intraperitoneal injection of 2.0 mmol/kg (^14 C)-N-acetyl-4-S-CAP compound. The animals were killed 48 hours later. The tissues were removed and the covalent binding was determined as follows.
Five different tissues were examined for covalent binding of radioactively labelled N-acetyl-4-S-CAP intermediate(s). The maximum binding of N-acetyl-4-S-CAP was detected in the s.c. melanoma tumor and melanoma colony-bearing lung tissues. […]
^a Female C57BL/6J mice received a single intraperitoneal injection o
2.0 nmol/kg (^14 C)NACAP. The animals were killed 48 hr later, the
tissues were removed, and the covalent binding was determined as describe
^b The data are presented as the means + S.D. (n = 3).

The test system of data set [2] is B16F10 melanoma. Nature of the data set: In vivo biodistribution by whole-body autoradiography. Also on record: species or system mouse. How it is done:
48 hours after injection the animal was killed, frozen and prepared for sectioning. The 20-μm sections were freeze-dried and exposed to x-ray film for whole-body autoradiography.
The s.c. melanoma tumor and the lung with melanoma colonies were the only organs displaying a significant accumulation of the radioactivity.

The test system of another data set is melanoma tissue. Nature of the data set: Distribution of 4-S-CAP in radioimaging or radiochemotherapy. The note with it: in vivo. From the text:
When the compounds of the formula (I) are used in radiochemotherapy they may be combined with suitable pharmaceutical excipients and carriers wherein the radioactive selected compounds are present in a biologically effective amount in the carriers. Suitable biologically, compatible carriers may be solutions when injected by either the IP or SC route. Suitable biologically, compatible carriers for injection include physiologically normal saline and other types of readily injectable solutions which are well understood by those skilled in the art and readily available. […] For purposes of injection, the concentration of the radiolabelled compound in the injectable solution is normally in the range of 200 to 1200 mg per kg of body weight where the preferred dosage is in the range of 300 mg to 500 mg per kg of body weight. In the following examples, further information is provided as to the amount of compounds injected for purposes of radioimaging.

The next data set deals with epidermal melanocytes. The note with it: topical application, cited from earlier work.
The test system of another data set is melanoma. The note with it: mice in vivo; cited from earlier work.
Another data set relates to follicular melanocytes. The note with it: cited from earlier work.
The subject of the next data set is monoamineoxidase (MAO). The note with it: cited from earlier work; for General (non-specific) cytotoxicity: via aldehyde metabolite formed by plasma MAO.
A further data set deals with tyrosinase. The note with it: cited from earlier work.
Another data set concerns UT amelanotic melanoma. Nature of the data set: In vitro cytotoxicity, MTT assay, UT amelanotic melanoma. The note with it: 120 h, 5 days. In kind it is cell-based. How it is done:
(§1) MTT assay in accordance with the standard procedure
(§2) MTT solution (Sigma catalog No. M2128) was dissolved in PBS at 1 mg/ml and filtered to sterilize the solution. The solution was stored in the dark at 4° C. until used. The growing cells were harvested, counted and inoculated into 96 well microtiter plates (1-2×10^3 cells/well).After 24 h, drugs were applied to culture wells, and the cultures were incubated for 5 days at 37° C. At this time, 50 μl of MTT solution was added to microculture wells. After 4 h incubation at 37° C., supernatant was removed from each well. 150 μl of DMSO was added to solubilized the MTT-formazan product. After mixing gently, absorbance at 540 nm was measured with ELISA plate spectrophotometer.
(In general: Tetrazolium assays rely on reduction of a dye to a coloured formazan, in cell work by metabolically active cells.)

The next data set deals with SK-MEL-23. Nature of the data set: In vitro cytotoxicity, MTT assay, SK-MEL-23. The class given is cell-based. The note with it: 120 h; SK-MEL-23, MTT, 5 days. How it is done: as §1, §2
Data set [3] can be described thus: Determination of NAP-TEA and N-Acetyl-4-S-CAP in plasma after i.p. injection. In kind it is in vivo, C57BL/6J Black Mouse. The note with it: NAP-TEA 300 mg/kg i.p., plasma at 5 and 20 minutes. On the procedure:
A C57BL/6J Black Mouse was injected at 300 mg/kg body weight by i.p. administration of NAP-TEA. 100 μl of plasma was extracted from the mouse after 5 minutes of injection and after 20 minutes of injection. The plasma samples were treated in accordance with the procedure of Example 2. The plasma samples were passed through a Sep-Pak C18 cartridge in either 5% methanol:water to produce eluent 1 or 50% methanol/water to produce eluent 2. Eluent 2 had the aqueous methanol removed therefrom to provide a residue. The residue was redissolved in methanol/0.1% acetic acid and water in a ratio of 50:50 and subjected to HPLC for both the 5 minute and 20 minute plasma samples. […] The concentration of N-Acetyl-4-S-CAP in the 5 minute extracted sample being considerably greater than in the 20 minute extracted sample to indicate that in vivo NAP-TEA is deacylated to N-Acetyl-4-S-CAP which in turn is then taken up by the mouse melanocytes.

In another data set the test system is mushroom tyrosinase. Nature of the data set: Utilization with mushroom tyrosinase (remaining compound by HPLC). The class given is biochemical. The note with it: 11 units tyrosinase, pH 6.8, 37° C. How it is done:
A reaction mixture consisting of NAP-TEA (500 μmol) and of mushroom tyrosinase (11 units) in 1.0 ml of 0.05 M sodium phosphate buffer (pH 6.8) was incubated at 37° C. in a water bath. The reaction was stopped periodically by cooling with ice. Aliquots removed at set time intervals were rapidly cooled to 0° C. in an ice bath and the remaining NAP-TEA was measured using HPLC. HPLC instrument and conditions Water 600 E liquid chromatograph system Conditions: μBondapak C18, Radial-Pak Cartridge (Waters) Mobile phase; 70% MeOH/H2 O, 1 ml/min Detector; Waters Model 441 UV absorbance detector Detection; Wavelength 254 nm

In the next data set the test system is HeLa. Nature of the data set: In vitro cytotoxicity, MTT assay, HeLa. In kind it is cell-based. The note with it: Homo sapiens, 120 h, 5 days. How it is done: as §1, §2
Another data set concerns functioning melanocytes. Nature of the data set: In vivo melanocytotoxicity in pig, topical application, Dopa-positive melanocyte count. Also on record: species or system Yucatan pig. The note with it: topical twice a day for 8 weeks. On the procedure:
Solutions of 15% NAP-TEA in DMSO(w/v) and of 15% NAP-TEA in 60% EtOH(w/v) were prepared for topical application to a Yucatan pig. NAP-TEA was applied to the back skin of the pig twice a day for 8 weeks. After 8 weeks, punch biopsy was performed from the application area and from normal skin. Specimens obtained were kept in 2N NaBr solution for 3 hours followed by separation of the epidermis from dermis. Specimens of epidermis were incubated for 3 hours in phosphate buffer (pH 7.4) containing L-Dopa. The specimens were fixed in 10% neutral formalin solution and then washed twice in PBS. Finally, the specimens were mounted in glycerol gel. The numbers of Dopa-positive melanocytes in 9 adjacent 1 mm^2 fields from each sample were counted.

The test system of the next data set is hair follicles. Nature of the data set: Depigmenting effect on newborn black mice. In kind it is in vivo, C57BL/6J black mice. The note with it: single i.p. dose 300 mg/kg, 3 day old mice. How it is done: Six newborn (3 day old) C57BL/6J black mice were injected i.p. with a single dose of 0.1 mL of NAP-TEA solution (300 mg/kg body weight).
In data set [4] the test system is follicular melanocytes (black hair). Nature of the data set: Melanocytotoxicity in vivo (depigmentation of black hair). The note with it: 300 mg/kg i.p. daily for 14 days, plucked C57BL/6J black mice. On the procedure:
Hairs were plucked manually from the back of 6-8 week old C57BL/6J black mice (4 mice). Starting on day 2, daily for 14 days NAP-TEA was injected i.p. The dose was 300 mg/kg body weight.

Details of data set [5]: species or system animals. The note with it: in vivo. How it is done: Experimental tests on animals indicate per single dose toxicity levels in the range of 1,400 mg/kg of body weight for the preferred compound of formula (II), NAP-TEA.
Data set [6] is described as follows: O-deacylation of NAP-TEA in mouse plasma in vitro. The class given is in vitro ADME. The note with it: 10 μg in 100 μl mouse plasma, shaken one-half minute, HPLC. On the procedure:
NAP-TEA was introduced to mouse plasma to determine by in vitro experimentation the extent to which NAP-TEA is deacetylated to form N-Acetyl-4-S-CAP. The procedure was as follows. Into 100 μl of mouse plasma, 10 μg of NAP-TEA was introduced. The mixture was shook for one-half of a minute and then passed through a Sep-Pak C18 cartridge in either 7 ml of 5% methanol/water to form eluent 1 or in 4 ml of 50% methanol/water to form eluent 2. Both eluents 1 and eluents 2 were collected. Aqueous methanol was removed from eluent 2 to provide a residue which was subjected to HPLC under the following conditions. […] The residue was mixed with methanol:water at 50:50 with a flow rate through the radiograph at 1 ml/min. The detector was a Water Associates Model 441 with detection by ultraviolet at 250 nm.

In the case of `CC(=O)NCCS[14c]1[14cH][14cH][14c](O)[14cH][14cH]1` [(14C)-NACAP, N-acetyl-4-S-cysteaminyl (U-^14 C) phenol], in the data set with B16F10 melanoma [1], the “Convalent Binding, B16F10 melanoma s.c. tumor” value is listed as 0.521 + 0.076 nmol covalently bound/kg of protein; the “Convalent Binding, kidney” value was 0.008 + 0.001 nmol covalently bound/kg of protein; the “Convalent Binding, liver” value is 0.013 + 0.003 nmol covalently bound/kg of protein; the “Convalent Binding, lungs with B16F10 melanoma colonies” value is listed as 0.330 + 0.113 nmol covalently bound/kg of protein. The “Convalent Binding, lungs without B16F10 melanoma colonies” value with B16F10 melanoma [1] is given as 0.010 + 0.001 nmol covalently bound/kg of protein. Further, the “Radioactivity in normal organs by whole-body autoradiography” value in the data set on B16F10 melanoma [2] (48 hours after i.p. injection, mouse) was “not detectable in any normal organs except the lumen of the large intestine”. The “Radioactivity in melanoma-bearing organs by whole-body autoradiography” value in the data set with B16F10 melanoma [2] (mouse with s.c. B16F10 tumor and B16F10 lung colonies, single i.p. injection 5.0 μCi, 48 hours) is given as “showed radioactivity in infected organs”.

Turning to `NCCSc1ccc(O)cc1` [Compound 4-S-CAP, 4-S-cysteaminylphenol], in the data set with melanoma tissue, the “Tissue accumulation in radioimaging or radiochemotherapy” value is given as “collects in the eye as well as in the melanoma tissue”. For the same compound, the “Inflammatory changes of the skin” value with epidermal melanocytes (guinea pigs) is on record as “prominent”. Further, the “Depigmentation of black guinea pig skin” value in the data set with epidermal melanocytes is listed as “demonstrated depigmenting properties”. Moreover, the “Antimelanoma effect (lifespan of melanoma-bearing mice, inhibition of melanoma growth)” value with melanoma is on record as “potent agent in prolonging the lifespan of melanoma-bearing mice”. Further, the “Effect on albino follicles” value in the data set with follicular melanocytes (albino follicles) was “no effect on the albino follicles”. The “Cytotoxicity on black hair follicles” value in the data set with follicular melanocytes (black follicles) is recorded as “demonstrated cytotoxicity in the depigmentation of black hair follicles”. Also, the “Substrate for monoamineoxidase (MAO)” value in the data set on monoamineoxidase (MAO) (plasma) was “substrate for monoamineoxidase (MAO)”. Moreover, the “General (non-specific) cytotoxicity” value in the data set with monoamineoxidase (MAO) is reported as “high toxicity; also recorded: some general cytotoxicity”.

For `NC(CSc1ccc(O)cc1)C(=O)O` (stereo not drawn) [Compound 4-S-CP, 4-S-cysteinylphenol], the “Antimelanoma effect (lifespan of melanoma-bearing mice, inhibition of melanoma growth)” value with melanoma is listed as “some inhibition of melanoma growth”.

One may read the IC50 as the concentration that gives 50% inhibition. Regarding `CC(=O)NCCSc1ccc(O)cc1` [N-Acetyl-4-S-CAP, N-acetyl-4-S-cysteaminylphenol], the Substrate of tyrosinase result in the data set on tyrosinase was “superior substrate”. In addition, in the data set on melanoma, the “Antimelanoma effect (lifespan of melanoma-bearing mice, inhibition of melanoma growth)” value was “potent antimelanoma properties”. The IC50 in the data set with UT amelanotic melanoma turned out to be 12 µg/mL (≈ 56.8 µM); in the data set on SK-MEL-23, 25 µg/mL (≈ 118 µM); with HeLa, 75 µg/mL (≈ 355 µM). Also, the “Compound detected in plasma by HPLC after NAP-TEA injection” value in [3] was “evidence of N-Acetyl-4-S-CAP”. Also, the “Substrate of mushroom tyrosinase (concentration remaining in the reaction mixture)” value with mushroom tyrosinase was “dropped off rapidly over 25 minutes to almost zero amount after 50 minutes”. For the same compound, the “General (non-specific) cytotoxicity” value with monoamineoxidase (MAO) is listed as “absence of such cytotoxicity”.

Take `CC(=O)NCCSc1ccc(OC(C)=O)cc1` [NAP-TEA, N-{2-((4-Acetoxyphenyl)-thio)ethyl}acetamide]: the “Number of functioning melanocytes (Average of 9 fields)” value with functioning melanocytes (15% NAP-TEA in 60% EtOH) is 74 ± 25 /mm^2; in the data set on functioning melanocytes (15% NAP-TEA in DMSO), 32 ± 14 /mm^2. The IC50 in the data set on UT amelanotic melanoma worked out at 14 µg/mL (≈ 55.3 µM); in the data set on SK-MEL-23, 31 µg/mL (≈ 122 µM); in the data set on HeLa, 77 µg/mL (≈ 304 µM). For the same compound, the “Depigmentation of hair follicles in newborn mice” value in the data set on hair follicles is “depigmented in all hair follicles with the growing hair being light grey”. Also, in data set [3], the “Compound detected in plasma by HPLC after NAP-TEA injection” value is “no evidence of NAP-TEA”. In addition, the “Depigmentation of replacement hair” value in [4] was “mice were depigmented with the new replacement hair being almost pure white”. Besides, the “per single dose toxicity level” value in data set [5] is on record as ~1,400 mg/kg of body weight. For the same compound, in the data set on mushroom tyrosinase, the “Substrate of mushroom tyrosinase (concentration remaining in the reaction mixture)” value was “not a substrate of mushroom tyrosinase”. The “O-deacylation to N-Acetyl-4-S-CAP in mouse plasma” value in data set [6] is recorded as “readily deacylated by the mouse plasma”.

On to `COC(=O)C(N)CSc1ccc(O)cc1` (stereo not drawn) [methyl ester of 4-S-CP], for which the “Antimelanoma effect (lifespan of melanoma-bearing mice, inhibition of melanoma growth)” value in the data set on melanoma was “some inhibition of melanoma growth”.
